Common to all, as to assay type: binding
One assay has as its target T1, KIF11 (Homo sapiens, UniProt P52732).
T1 construct: endogenous in cells; host or cells: HEK293 / HEK293T (ATCC; CRL-11268) lysate
T1 sequence (P52732 1-1056): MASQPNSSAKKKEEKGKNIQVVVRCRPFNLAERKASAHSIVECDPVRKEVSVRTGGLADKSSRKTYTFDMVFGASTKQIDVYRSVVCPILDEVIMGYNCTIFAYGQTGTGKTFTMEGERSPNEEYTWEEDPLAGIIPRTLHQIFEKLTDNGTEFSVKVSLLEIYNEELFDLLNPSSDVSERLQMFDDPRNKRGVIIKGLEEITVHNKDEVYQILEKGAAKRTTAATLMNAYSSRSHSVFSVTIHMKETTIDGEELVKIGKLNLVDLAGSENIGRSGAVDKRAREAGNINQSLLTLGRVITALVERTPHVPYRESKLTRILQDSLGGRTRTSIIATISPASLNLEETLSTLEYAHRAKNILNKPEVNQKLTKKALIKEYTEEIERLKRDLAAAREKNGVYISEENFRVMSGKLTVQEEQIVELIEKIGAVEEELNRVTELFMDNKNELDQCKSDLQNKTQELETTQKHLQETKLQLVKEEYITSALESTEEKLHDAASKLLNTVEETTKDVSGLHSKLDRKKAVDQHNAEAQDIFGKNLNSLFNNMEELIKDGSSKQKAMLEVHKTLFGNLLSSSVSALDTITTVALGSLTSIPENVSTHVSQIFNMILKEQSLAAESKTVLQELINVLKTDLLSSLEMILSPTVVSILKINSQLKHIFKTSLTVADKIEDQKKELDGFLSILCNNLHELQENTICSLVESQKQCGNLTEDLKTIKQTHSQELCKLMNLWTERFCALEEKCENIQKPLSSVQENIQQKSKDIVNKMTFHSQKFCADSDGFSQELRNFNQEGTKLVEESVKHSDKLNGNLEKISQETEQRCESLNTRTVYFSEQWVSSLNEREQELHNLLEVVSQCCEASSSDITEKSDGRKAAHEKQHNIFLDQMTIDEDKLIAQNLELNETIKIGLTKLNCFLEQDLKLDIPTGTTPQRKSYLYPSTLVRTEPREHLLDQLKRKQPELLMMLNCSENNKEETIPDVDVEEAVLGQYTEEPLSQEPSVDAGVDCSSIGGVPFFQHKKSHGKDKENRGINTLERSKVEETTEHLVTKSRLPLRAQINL
Nature of the assay: Chemoproteomic competition pulldown assay (affinity matrix, LC-MS/MS) in HEK293T lysate. The note with it: over 4000 proteins identified.

The next assay concerns LC3/GABARAP. The description is as above. The note with it: HEK293T cell lysate. As for the experimental part:
Preparation of Affinity Matrix 10O5 and 8F20: Compounds 18 and 19 (1 µM) were linked to DMSO-washed NHS-activated ( ~ […] beads) sepharose beads (1 mL) and triethylamine (20 µL) in DMSO (2 mL) on an end-over-end shaker overnight at RT in the dark. Aminoethanol (50 µL) was then added to inactivate the remaining NHS-activated carboxylic acid groups. […] Successful immobilization was controlled by LC-MS and Kaiser-test[46].
Preparation of cell lysates for affinity pulldown assays: HEK293 cells (ATCC; CRL-11268) were cultured in DMEM (PAN Biotech). All media were supplemented with 10% FBS (PAN Biotech) and cells were internally tested for Mycoplasma contamination. […] The protein amount of cell lysates was determined by Bradford assay and adjusted to a concentration of 5 mg/mL[46]. […]
LC-MSMS measurement of (competition) pulldown assays: Peptides were analyzed via LC-MS/MS on a Dionex Ultimate3000 nano HPLC coupled to an Orbitrap Fusion Lumos mass spectrometer, operated via the Thermo Scientific Xcalibur software. […]
The mass spectrometer was operated in data dependent mode, automatically switching between MS1 and MS2 spectra. […] Up to 12 peptide precursors were isolated (isolation width of 1.2 Th, maximum injection time of 75 ms, AGC value of 2e5), fragmented by HCD using 25 % […] normalized collision energy (NCE) and analyzed in the Orbitrap at a resolution of 15,000. […]

Assay [1] concerns the target T2, LC3A (Homo sapiens, UniProt Q9H492). Nature of the assay: Isothermal titration calorimetry (ITC). The note with it: rounded, rebuttal letter; Novobiocin in reverse titration. A general note: ITC needs no label: the signal is the heat of the interaction.
For assay [2], the target named is T2, LC3A. The assay can be described thus: Isothermal titration calorimetry (ITC). The settings on record: replicates 1-3, rebuttal letter. An excerpt: To minimize nonspecific dilution heat effects, DMSO concentrations in the protein and compound samples were matched. […] For this protocol, the chamber was pre-equilibrated with the protein, and the test compounds were titrated while continuously measuring the rate of exothermic heat evolution. The heat of binding was integrated, corrected, and fitted to an independent single-binding site model based on the manufacturer’s instructions, from which thermodynamic parameters (ΔH and TΔS), equilibrium association and dissociation constants (KA and KD, respectively), and stoichiometry (n) were calculated using TA Instruments NanoAnalyze software.

Assay [3] concerns LC3/GABARAPs (human Atg8 family). Nature of the assay: FP assay with Cy5-labelled p62 LIR tracer, statements on all LC3/GABARAPs.

Structures are written as SMILES. Where “and” joins values, the source holds several entries; their conditions need not be identical. Identical values can stand only once.

Protocol for KIF11: The experiment was performed once at each concentration (n = 1).
The beads were washed (1 × 1 mL of lysis buffer without inhibitors and only 0.4% Igepal, 2 × 2 mL of lysis buffer without inhibitors and only 0.2% Igepal, and 3x lysis buffer without Igepal). The remaining proteins were denatured in 40 µl of 8 M urea buffer (with 10 mM DTT in 40 mM Tris-HCl, pH 7.4), alkylated by adding 5 µl of 55 mM chloroacetamide and digested by adding 30 µl of 10 ng/µl Trypsin solution. […]
Precursor tolerance was set to 10 ppm and fragment ion tolerance to 20 ppm. […] Label-free quantification[47] and match between runs was enabled[46].
Competition pulldown assay data analysis: Relative residual binding of proteins to the affinity matrix was calculated based on the protein intensity ratio relative to the DMSO control for every single inhibitor concentration. […]

Regarding `Cc1ccc(C(=O)N(CCCNC(=O)CCOCCOCCOCCN)[C@@H](c2nc3cc(Cl)ccc3c(=O)n2Cc2ccccc2)C(C)C)cc1` [compound 19, (R)-N-(1-amino-12-oxo-3,6,9-trioxa-13-azahexadecan-16-yl)-N-(1-(3-benzyl-7-chloro-4-oxo-3,4-dihydroquinazolin-2-yl)−2-methylpropyl)−4-methylbenzamide], the “additional targets in proteome-wide pulldown” value on KIF11 is “No additional targets were detected”. Moreover, in the assay on LC3/GABARAP, the “enrichment / pulldown of LC3/GABARAP by affinity matrix” value is given as “did not enrich”.

With `COc1ccc(/C=C/CCCCOc2ccc(C(=O)c3cccc(C(=O)O)c3)cc2CCC(=O)O)cc1` [compound 20], the “enthalpies observed in ITC experiments” value at LC3A [1] is -7 kcal/mol. On LC3A [2] (listed as LY223982), the “Enthalpy (ITC, repeated titration)” value is -11,64 kCal/mol and -9,814 kCal/mol; the “Entropy (ITC, repeated titration)” value was -12,88 Cal/(mol*K) and -16,4 Cal/(mol*K) and -10,29 Cal/(mol*K); the “Stoichiometry, n (ITC, repeated titration)” value was 1,011 and 1,038 and 1,021. In addition, the Kd at LC3A [2] (read-out: KD (ITC, repeated titration)) is 11.2 µM and 11.4 µM and 10 µM. In assay [3], the “interaction with LC3/GABARAP family members in FP displacement assay” value is on record as “selective binding to LC3 family members”.

For the origin of these results see PMC11589570, “Critical assessment of LC3/GABARAP ligands used for degrader development and ligandability of LC3/GABARAP binding pockets” (Nature Communications, 2024).
